Source: article PMC11232401, “Characterization of antimalarial activity of artemisinin-based hybrid drugs” (Antimicrobial Agents and Chemotherapy, 2024)
Where two headings read alike, the source gives them in different places.

Assays:
[1] = tested on: ring stages of NF54 strain of P. falciparum; assay: Exposure time dependence in drug activity (pLDH); assay type: cell-based; conditions: Plasmodium falciparum
Description: Each well of 96-well plates was filled with 100 µL drug and 100 µL culture containing ring-stage P. falciparum (NF54 strain) parasites, which were mixed to obtain a final parasitemia of 1.0% to 1.5% and 1.0% hematocrit. Plates were incubated at 37°C in a standard gas mixture. After 3 h and 6 h, plates were centrifuged, cell pellets were washed as described above then returned to the incubator for an additional 69 h and 66 h, respectively. In parallel, the same experiment was left without the washing step, enabling continuous drug exposure throughout. Plates were processed using the pLDH method, and IC50 values were calculated as described above. Three independent experiments were performed using two technical replicates.
Figure S2: Exposure time dependence of antiparasitic activity against ring stages of CQ-sensitive strain NF54 of P. falciparum. Data associated to Figure 2B in the main text of the manuscript. Footnotes for table: ^[a] Synchronized ring-stage parasites were incubated in the presence of compounds at indicated times, drugs were removed by washing, and plates were incubated until 72 h.^[b] Parasites were incubated in the presence of compounds for 72 h. ^[a,b^] Experiments were performed in parallel (paired). Parasite viability was determined by parasite lactate dehydrogenase (pLDH) assay. Data are from three experiments performed in duplicate.^ [c] […] MFQ = mefloquine. DHA = dihydroartemisinin; SEM = standard error of the mean; N.S. = not statistically significant.

[2] = tested on: Asynchronous NF54 strain of P. falciparum; assay: Speed of drug activity (pLDH); assay type: cell-based, Plasmodium falciparum; conditions: for IC50: Plasmodium falciparum, NF54, asynchronous, mean (95% CI); for Conclusion (speed of antiparasitic activity): from IC50 at 24, 48, 72 h
Description: Each well of 96-well plates was filled with 100 µL drug and 100 µL culture containing asynchronous P. falciparum (NF54 strain) parasites, which were mixed to obtain a final parasitemia of 1.0% to 1.5% and 1.0% hematocrit. The plates were incubated for 24, 48, and 72 h at 37°C with a standard gas mixture. […] Parasite viability was measured using the pLDH method, and IC50 values were calculated as described above. Three independent experiments were performed using two technical replicates.
Figure S3: Speed of antiparasitic activity of hybrids (1) and (2) against CQ-sensitive NF54 strain of P. falciparum. Panel A: Representative response-concentration curves. Panel B: A table summarizing the results. Footnotes for table: ^[a] Parasite viability was accessed at each indicated time (24, 48, or 72 h) after addition of drugs. Values are the mean and 95% confidence interval of one experiment using each concentration of compounds in duplicate. Parasite viability was determined by parasite lactate dehydrogenase (pLDH) assay. DHA = dihydroartemisinin; ATO = atovaquone.

[3] = tested on: 3D7 strain of P. falciparum; assay: Host cell-mediated drug degradation: antiplasmodial activity of uRBC supernatants; assay type: cell-based, Plasmodium falciparum; conditions: for IC50: Plasmodium falciparum, 3D7, 0.16 h, 500 nM drug, 3D7, SYBR Green I, median ± SEM (AQ mean, 95% CI), read-out: IC50 of supernatants harvested at 0.16 h; for Fold changes (24 h/0.16 h): 3D7, ratio of IC50 at 24 h to IC50 at 0.16 h
Description: Each well of 96-well plates was filled with 125 µL drug (1000 nM) and 125 µL uninfected red blood cells (uRBC), which were mixed to obtain a final drug concentration of 500 nM and 2.5% or 1.0% hematocrit. The plates were incubated at 37°C in the standard gas mixture. After each time point (10 min, 6 h, and 24 h), supernatants were carefully harvested and stored at −80°C until use. […] Next, supernatants were diluted in a complete medium in six different dilutions and were aliquoted in new plates. The antimalarial activity of these supernatants and freshly dissolved drugs was determined in an asynchronous parasite culture of P. falciparum (3D7, D10, and W2 strains) for 72 h using the same method described above, and parasite viability was assessed by the pLDH ([38]) and SYBR Green I ([41]) methods. Only the experiments where the IC50 values of the supernatants harvested at 10 min were the same as those of the respective fresh drugs were considered for determining equivalent drug concentration. […] Decay in drug concentration was estimated by using the normalized slope values calculated from linear regression fits using the slope values of a standard curve as reference. Three independent experiments were performed using two replicates.
Figure S5: Data associated to Figure 3 in the main text of the manuscript. Panel A: Representative response-concentration curves of the antiplasmodial activity of supernatant-derived uRBC (2.5% hematocrit) harvested at indicated times (0.16, 6, and 24 h). Drug activity on parasite viability was determined 72 h after parasite incubation (3D7 strain, asynchronous). Values were subtracted from control (without treatment), transformed, and normalized to calculate nonlinear fit. Parasite viability was determined by SYBR Green I. Values are mean and error bars are the standard deviation of a single experiment, each concentration in duplicate. […] Footnotes: ^[a] Parasite viability was determined by SYBR Green I. ^[b^] Parasite viability was determined by pLDH readout. Values are median ± SEM of three independent experiments, each concentration in duplicate. ^[c^] […] These values are expressed as mean and 95% confidence interval (CI) of one experiment, each concentration in duplicate. […] Unpaired two-tailed t-test at 95% CI: *p <0.05; **p <0.01.

[4] = tested on: F32-TEM (sensitive) early ring-stage parasites; assay: Ring-stage survival assay (RSA0-3h); assay type: cell-based, Plasmodium falciparum; conditions: 700 nM, 6 h pulse, 66 h growth
Description: Early ring-stage parasites (0–3 h post-invasion) of F32-ART and F32-TEM strains highly synchronized by Percoll-Sorbitol treatment were exposed to 700 nM of the drugs or 0.1% DMSO (control) for 6 h. Each drug was tested in duplicate. Parasite pellets were then washed in RPMI-1640 medium before being placed in drug-free culture conditions with 10% human serum and incubated for 66 h ([44]). Survival rates were assessed microscopically by two independent microscopists by counting the parasites in 10,000 RBCs. Three independent experiments were performed.

[5] = tested on: quiescent ART-resistant parasites (F32-ART); assay: Quiescent-stage survival assay (QSA); assay type: cell-based, Plasmodium falciparum; conditions: for Recrudescence time in days (median; range), Quiescent parasites (QSA) DHA / DHA + drug: then DHA plus 700 nM drug 48 h (condition B); for delay of recrudescence in the QSA versus DHA alone: threshold of activity 6 days
Description: The QSA was performed as previously described to determine the drug activity on quiescent ART-resistant parasites ([11]). F32-ART culture parasites were synchronized at the ring stage and adjusted to 3% parasitemia and 2% hematocrit. […] At the end of treatment, parasites from each of the three conditions were washed with RPMI-1640 medium and replaced in new wells in a drug-free culture medium with 10% human serum. Parasitemia was determined daily by thin blood smears until the cultures reached their initial parasitemia (3%), which was defined as the recrudescence day ([11]). The recrudescence capacity of parasites exposed in conditions A and B was compared to determine whether the drug was active on quiescent parasites. Condition C was designed to check that the concentration at which the drug was tested acted on proliferating parasites. If no parasite recrudescence was observed, the experiment was stopped.

[6] = NF54, 6 h drug pulse, wash, incubated until 72 h, median ± SEM, read-out: IC50, 6 h + 66 h
[7] = NF54, 72 h continuous drug, median ± SEM, read-out: IC50, 72 h
[8] = NF54, read-out: IC50, 3 h + 69 h, 3 h drug pulse, wash, incubated until 72 h, median ± SEM
[9] = viability at 24 h, read-out: IC50, 24 h
[10] = viability at 48 h, read-out: IC50, 48 h
[11] = viability at 72 h, read-out: IC50, 72 h

| Compound | IC50 [1, 6] | IC50 [1, 7] | IC50 [1, 8] | IC50 [2, 9] | IC50 [2, 10] | IC50 [2, 11] | Conclusion (speed of antiparasitic activity) [2] | IC50 ([3]; uRBC 1.0% hematocrit) | IC50 ([3]; uRBC 2.5% hematocrit) | loss in supernatant activity, supernatant harvested at 6 h ([3]; high hematocrit (2.5%)) | loss in antiplasmodial activity of supernatants harvested at 6 h ([3]; low hematocrit (1%)) | Survival rate (%) from the RSA0-3h, F32-TEM (sensitive) [4] | Recrudescence time in days (median; range), Quiescent parasites (QSA) DHA / DHA ([5]; 700 nM DHA 6 h, then DHA alone 48 h (condition A)) | Fold changes (24 h/0.16 h) ([3]; uRBC 1.0% hematocrit) | Fold changes (24 h/0.16 h) ([3]; uRBC 2.5% hematocrit) | Fold changes (24 h/0.16 h) ([3]; uRBC 2.5% hematocrit, listed as LH70 (1)) | Recrudescence time in days (median; range), Quiescent parasites (QSA) DHA / DHA + drug ([5]; 700 nM DHA 6 h) | delay of recrudescence in the QSA versus DHA alone [5] | Fold changes (24 h/0.16 h) ([3]; uRBC 2.5% hematocrit, listed as 163A (2)) |
| --- | --- | --- | --- | --- | --- | --- | --- | --- | --- | --- | --- | --- | --- | --- | --- | --- | --- | --- | --- |
| C[C@H]1[C@@H](O)O[C@@H]2O[C@@]3(C)CC[C@H]4[C@H](C)CC[C@@H]1[C@@]24OO3 [DHA, dihydroartemisinin, reference compound] | 5 ± 0.5 nM | 1.9 ± 0.2 nM | 100 ± 25 nM | 8.3 nM | 2.9 nM | 2.7 nM | Fast-acting | 4.5 ± 1.1 nM | 6.7 ± 2.5 nM | fourfold | 2 fold | 0.04 ± 0.03% | 8.5 (8–9) days | – | – | – | – | – | – |
| COCCOCCOCCOCCn1c(-c2ccc(-n3cc(-c4ccc(OC5OC6OC7(C)CCC8C(C)CCC(C5C)C68OO7)cc4)nn3)cc2)nc2ccccc21 (stereo not drawn) [Hybrid 1] | 1.5 ± 0.3 nM | 1.5 ± 0.1 nM | 220 ± 80 nM | 2.4 nM | 3 nM | 2 nM | Fast-acting | – | 1.3 ± 0.44 nM | – | – | 0.05 ± 0.03% | – | 1.0 ± 0.23 | 3 | 3.6 ± 0.8 | 11.5 (11–12) days | 0.5 days | – |
| CC1CCC2C(C)C(OC(=O)CCC(=O)OCCNc3ccnc4cc(Cl)ccc34)OC3OC4(C)CCC1C32OO4 (stereo not drawn) [Hybrid 2] | 9 ± 1.5 nM | 3.8 ± 0.4 nM | 75 ± 18 nM | 9.4 nM | 4.3 nM | 5.6 nM | Fast-acting | 3.4 ± 0.33 nM | 2.8 ± 0.51 nM | – | – | 0.04 ± 0.02% | – | 1.1 ± 0.31 | 10 | – | 9 (8–10) days | 3 days | 10.7 ± 4.1 |
